The text below walks through data of US6984659B2, “2-pyrrolidinone derivatives substituted at position 4 for reducing the extracellular glutamate level” (priority 1997, dated 2006).

Molecules are shown by their SMILES. “Also recorded” adds a separate entry of the source.

Data set [1] relates to electrically evoked release of [^3H]-NA. In words: electrically evoked release of [^3H]-NA from rat brain slices. It counts as cell-based. As to conditions: quasi-physiological release. The text has this:
Note that the deviations indicate confidence intervals (CI95), not standard errors. In this model, GBP and its lactam seem equipotent. GBP and GBP-L are ineffective on the quasi-physiological, electrically evoked release of [^3H]-NA from both rat and human brain slices (not shown).

For data set [2], the system named is potassium-evoked release of [^3H]-noradrenaline. Conditions: rat neocortex slices; Freiman et al. 2001, FIG. 1.0; cited from earlier work.
Data set [3] concerns mitochondrial KATP channels. In words: mitochondrial KATP channels, depression of the mitochondrial membrane potential. The class given is biochemical. The protocol:
The mode of action of GBP-L and GBP was tested with regard to mitochondrial KATP channels (Szewczyk and Marban 1999). […] Effects of GBP-L on the mitochondrial membrane potential were already seen at 5 μM. […] Thus, the neuroprotective effect of GBP-L seems to be mediated predominantly through mitochondrial KATP channels.

The subject of data set [4] is Mice transgenic for exon 1 of the human HD gene (line R 6/2). In words: mouse model of Huntington's disease, walking on a balance beam. It counts as in vivo. The text has this:
Mice transgenic for exon 1 of the human HD gene (line R 6/2), carrying CAGn=115-156 expansions, develop pronounced neuronal intranuclear inclusions, containing the proteins huntington and ubiquitin prior to the characteristic neurological phenotype with bradykinesia and seizures corresponding to the juvenile type of HD (Davies et al. 1997). The life time of these mice is up to 17 weeks. It was investigated whether gabapentin (GBP) and its derivative gabapentin-lactam (GBP-L, Jehle et al. 2000), may exert neuroprotective effects by using a battery of behavioral tests selected to measure motor aspects of fore-and hindlimb coordination and balance. In a first series of experiments mice were treated with GBP-L (100 mg/kg*day, 8 mice) and vehicle only (B mice) from the 6th week of their life until death using Alzet pumps implanted subcutaneously and delivering the test compounds systemically and continuously for up to four weeks. Empty Alzet pumps were repeatedly replaced. Animals were tested twice weekly by walking on a balance beam (width: 5 and 14 mm, Carter et al. 1999) up to week 15.5. A second series of experiments involved mice again treated with GBP-L (100 mg/kg*clay, 7 mice) and mice treated with GBP (100 mg/kg*day, 8 mice) from the 6th week of their life until death with week 17 being the maximum endpoint. In addition, immunohistochemical studies, using a monoclonal mouse antibody raised against ubiquitin, were done to analyse areas of ubiquitinated nuclear inclusions in three brain regions (hippocampus, neocortex and striatum) in a blinded fashion in order to compare mice treated with GBP-L or GBP.
This effect (E), as measured by the time necessary to pass the balance beam, was evaluated in each single mouse according to the function E=be^a time, yielding individual graphs with parameter estimates for a and b. The area under the curve, representing the motor ability of an individual mouse, was weighted by the life of this mouse. For instance, the area under the curve of a mouse which died at week 12.5 was divided by the ratio 12.5/15.5 in order to allow for possibly different life times of the mice.
Note that the observation period of the second series of experiments was 17 instead of 15.5 weeks only in the first set. Accordingly, the weighting by the life time now used the divisor 17 Instead of 15.5.

The subject of data set [5] is potassium-evoked release of [^3H]-noradrenaline. Description: potassium-evoked release of [^3H]-noradrenaline from human neocortical slices (superfusion). It counts as cell-based. Conditions: human neocortex slices. The text has this: The effects of GBP and GBP-L were compared by a very similar approach using rat and human neocortical slices.
Note that the deviations indicate confidence intervals (CI95), not standard errors.

Data set [6] concerns retinal gangliocytes (neurons in the ganglion cell layer). The class given is in vivo. The protocol:
The following results were found:
10 rats were treated with 0.9% NaCl i.p. at the start of a unilateral one-hour intraocular pressure increase. After 6 hours, the treatment was again carried out with 0.9% NaCl i.p. After 14 days, the rats were sacrificed, and the retinal gangliocytes were investigated. Compared with the respective control eye, only 17.4% (±4%) of the retinal gangliocytes had survived.
In the test group, likewise of 10 rats, 50 mg/kg 8-azaspiro[5,4]decan-9-one was administered i.p. at the start of a unilateral one-hour intraocular pressure increase. The compound was administered again in a dose of 50 mg/kg 6 hours after the intraocular pressure increase. After 14 days, the rats were sacrificed, and the retinal gangliocytes were investigated. It emerged that, compared with the respective control eye, 35% (±7%) of the retinal gangliocytes survived.
The method in brief: Retinal ischemia in the left eye was induced by elevating the intraocular pressure above systolic blood pressure for one hour. Retinal ischemia was confirmed by whitening of the fundus. In the first experiment 10 rats received 50 mg/kg GBP intraperitoneally immediately prior to ischemia and 50 mg/kg 6 hours after reperfusion, 10 rats received 50 mg/kg GBP-L i.p. immediately prior to ischemia and 50 mg/kg 6 hours after reperfusion, and 10 rats received vehicle alone. Ischemic damage was histologically quantified 14 days after ischemia: Both eyes were enucleated and immersed in 4% buffered formaldehyde for 24 hours. Retinal wholemounts were made and stained with cresyl violet, (0.1%, pH 4.5 for 30 min). Ischemic damage was quantified by counting the number of neurons in the ganglion cell layer in a masked fashion. […] This control eye was not subjected to ischemia.
Statistically, the ganglion cell numbers were evaluated as follows: In contrast to the usual ANOVA where the ratio of the mean squares between the treatment groups and the error mean square is used in the F-statistic, the nested design applied here requested another approach. Apart from the factor medication, there were three other sources of variation in our example, (1) the rat, (2) the eye, and (3) the replications of cell counting within each eye. To test for the medication effect the mean square for rat within medication has to be used as denominator. The variability of the eye is then contained in both the numerator (with all contributions to the variance) and the denominator (with the contributions to the variance except that of the factor medication). Thus, the variability of the eye is eliminated in the end and the variance of the factor medication is assessed appropriately in the F-test. The used model was: cell counts=med rat (med) eye(med*rat).
In order to evaluate the therapeutic window of GBP-L as an antiischemic drug (Pulsinelli et al. 1997) its time-effect relationship was tested at 75 mg/kg given twice prior to or after the end of ischemia with an interval of 6 hours.
The dose dependence of the neuroprotective effect of GBP-L was established using 25 mg/kg, 50 mg/kg and 75 mg/kg (see FIG. 7) given twice three hours and nine hours after the end of ischemia.

In data set [7] the test system is electrically evoked release of Glu. Description: electrically evoked [^3H]-Glu release from [^3H]-Gln-loaded hippocampus slices. It counts as cell-based, rat. Conditions: 540 pulses of 4 ms, 6 Hz, 60 mA, room temperature, 100 μM PDC, added 15 min before second stimulation.
Where [8] appears, read: second series, 100 mg/kg*day, observation period 17 weeks.

Consider `NCC1(CC(=O)O)CCCCC1` [GBP, gabapentin, reference compound], for which the “electrically evoked release of [^3H]-NA (in words)” value in data set [1] is listed as “ineffective”. Further, the “potassium-evoked release of [^3H]-noradrenaline (in words)” value in data set [2] is reported as “inhibitory effects”. Further, the “activity at mitochondrial KATP channels (in words)” value in data set [3] was “hardly effective”. In data set [4] (setting [8]), the “mean weighted area representing the motor ability on the 5 mm beam” value is recorded as 77.33 and the “mean weighted area representing the motor ability on the 14 mm beam” value worked out at 65.71. Also, the “K^+-evoked [^3H]-NA release (in words)” value in data set [5] is reported as “inhibited similarly”. Moreover, the “neuroprotective effect / number of surviving neurons (in words)” value in data set [6] (50 mg/kg i.p. immediately prior to ischemia and 6 hours after reperfusion, 14 days, listed as gabapentin) was “no protective effect whatever”. Further, the “rate of surviving neurons” value in data set [6] (50 mg/kg i.p. twice, ganglion cell layer neurons, 14 days after ischemia, pure ischemia 17.5%) amounted to 17.5%.

In the case of `O=C1CC2(CCCCC2)CN1` [GBP-L, 8-azaspiro[5,4]decan-9-one], the “electrically evoked release of [^3H]-NA (in words)” value in data set [1] is “ineffective”. The “electrically evoked release of Glu (in words)” value in data set [7] is listed as “seems not to be influenced”; in data set [7] (listed as gabapentin lactam), “not influenced; also recorded: unaffected”. The “activity at mitochondrial KATP channels (in words)” value in data set [3] is given as “potent activator”. The “concentration at which effects on the mitochondrial membrane potential were already seen” value in data set [3] is 5 µM. In addition, the EC50 in data set [3] (read-out: half-maximal depression of the mitochondrial membrane potential) came out at 85 µM. Also, in data set [4] (first series, 100 mg/kg*day), the “motor abilities compared to vehicle animals (in words)” value is “markedly and significantly improved”. Also, the “mean weighted area representing the motor ability on the 5 mm beam” value amounted to 26.64 in data set [4] (first series, 100 mg/kg*day s.c. Alzet pumps from 6th week, up to week 15.5, vehicle 44.60) and 43.75 in data set [4] (setting [8]). In addition, the “mean weighted area representing the motor ability on the 14 mm beam” value in data set [4] (first series, 100 mg/kg*day, up to week 15.5, vehicle 31.54) was 17.16; in data set [4] (setting [8]), 30.46. The “K^+-evoked [^3H]-NA release (in words)” value in data set [5] is listed as “inhibited similarly”. Also, in data set [6] (50 mg/kg i.p. at start of one-hour intraocular pressure increase and again 6 hours after, 14 days, NaCl group 17.4%), the “retinal gangliocytes survived compared with the respective control eye” value is given as 35%. The “mortality in the 14 days after the test” value in data set [6] (50 mg/kg i.p. twice, 10 rats) was “no animal died”. Moreover, in data set [6] (75 mg/kg given twice prior to or after the end of ischemia, interval 6 hours, another strain of rats), the “time-effect relationship: neuroprotective action maintained after recirculation” value is “maintained for more than three hours after recirculation”. For the same molecule, the “slope of regression line of dose-effect relationship” value in data set [6] (25, 50 and 75 mg/kg given twice, three and nine hours after the end of ischemia) came to 0.41.
